Reference: US20090304692A1, “TRIAZINE COMPOUNDS AS PI3 KINASE AND MTOR INHIBITORS” (Wyeth, priority 2008, published 2009)
“And” between values parts separate entries of the source, which are not always exact repeats. Equal entries are not always repeated. Structures can show the parent of a compound that is named as a salt. Where two headings read alike, the source gives them in different places.

What was measured:
[1] = test system: human prostate PC3-mm2 tumor cell line; assay: In vitro cell culture growth assay (MTS), PC3-mm2; format: cell-based; details: Homo sapiens, PC3MM2, 72 h
[2] = target: PI3K-α (Homo sapiens, UniProt P42336); assay: PI3K-alpha fluorescence polarization assay; details: read-out: IC50 PI3Kα
Chain of PI3K-α (P42336 whole entry, species assumed): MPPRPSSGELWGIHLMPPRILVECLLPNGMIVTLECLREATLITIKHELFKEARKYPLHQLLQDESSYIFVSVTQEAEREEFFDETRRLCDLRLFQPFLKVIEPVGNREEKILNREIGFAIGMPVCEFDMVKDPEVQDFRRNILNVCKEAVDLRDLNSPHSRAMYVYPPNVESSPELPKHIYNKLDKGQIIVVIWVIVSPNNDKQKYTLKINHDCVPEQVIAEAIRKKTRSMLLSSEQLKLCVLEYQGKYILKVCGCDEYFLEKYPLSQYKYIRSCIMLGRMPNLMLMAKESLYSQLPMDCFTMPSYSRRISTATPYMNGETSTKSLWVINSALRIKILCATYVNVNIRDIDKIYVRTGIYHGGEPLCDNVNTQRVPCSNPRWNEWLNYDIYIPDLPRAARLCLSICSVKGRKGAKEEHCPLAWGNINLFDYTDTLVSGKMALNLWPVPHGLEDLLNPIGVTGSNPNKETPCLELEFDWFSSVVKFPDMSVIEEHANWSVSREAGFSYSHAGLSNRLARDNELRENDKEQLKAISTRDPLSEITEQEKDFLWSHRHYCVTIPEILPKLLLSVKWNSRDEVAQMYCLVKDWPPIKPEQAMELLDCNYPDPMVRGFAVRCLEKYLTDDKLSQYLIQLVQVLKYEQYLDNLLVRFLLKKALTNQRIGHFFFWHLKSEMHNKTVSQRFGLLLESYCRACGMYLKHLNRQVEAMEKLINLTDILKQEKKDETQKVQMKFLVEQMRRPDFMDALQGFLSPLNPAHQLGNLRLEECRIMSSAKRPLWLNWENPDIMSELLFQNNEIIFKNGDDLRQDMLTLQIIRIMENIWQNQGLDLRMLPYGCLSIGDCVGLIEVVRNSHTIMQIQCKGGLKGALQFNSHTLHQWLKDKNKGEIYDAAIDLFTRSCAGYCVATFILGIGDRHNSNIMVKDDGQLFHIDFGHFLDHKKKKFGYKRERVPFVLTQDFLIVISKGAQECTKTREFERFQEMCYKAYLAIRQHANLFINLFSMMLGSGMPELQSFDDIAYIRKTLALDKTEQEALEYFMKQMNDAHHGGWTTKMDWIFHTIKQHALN
Chain of PI3K-α (P27986 whole entry partner, species assumed): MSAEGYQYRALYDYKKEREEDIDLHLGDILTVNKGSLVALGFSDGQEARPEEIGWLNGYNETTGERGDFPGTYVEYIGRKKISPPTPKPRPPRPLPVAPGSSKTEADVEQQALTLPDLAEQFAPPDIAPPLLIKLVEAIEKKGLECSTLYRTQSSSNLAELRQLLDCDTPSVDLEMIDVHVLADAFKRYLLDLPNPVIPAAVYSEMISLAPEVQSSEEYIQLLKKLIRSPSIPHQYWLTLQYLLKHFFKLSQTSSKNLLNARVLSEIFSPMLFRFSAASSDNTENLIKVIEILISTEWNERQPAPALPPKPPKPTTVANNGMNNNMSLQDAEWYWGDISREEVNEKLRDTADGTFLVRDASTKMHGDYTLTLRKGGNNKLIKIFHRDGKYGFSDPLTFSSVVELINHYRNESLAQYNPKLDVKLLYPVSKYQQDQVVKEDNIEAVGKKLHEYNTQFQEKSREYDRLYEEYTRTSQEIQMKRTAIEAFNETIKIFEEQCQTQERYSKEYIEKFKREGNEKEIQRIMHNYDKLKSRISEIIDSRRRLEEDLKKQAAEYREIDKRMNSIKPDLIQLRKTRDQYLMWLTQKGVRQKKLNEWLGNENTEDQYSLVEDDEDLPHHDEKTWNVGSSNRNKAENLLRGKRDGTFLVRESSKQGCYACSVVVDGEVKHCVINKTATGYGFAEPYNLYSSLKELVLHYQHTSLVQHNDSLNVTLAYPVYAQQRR

[3] = target: Human mTOR (FLAG-TOR) (Homo sapiens, UniProt P42345); assay: mTOR kinase assay (DELFIA format, purified enzyme); format: biochemical
Chain of Human mTOR (FLAG-TOR) (P42345 1360-2549 limits assumed): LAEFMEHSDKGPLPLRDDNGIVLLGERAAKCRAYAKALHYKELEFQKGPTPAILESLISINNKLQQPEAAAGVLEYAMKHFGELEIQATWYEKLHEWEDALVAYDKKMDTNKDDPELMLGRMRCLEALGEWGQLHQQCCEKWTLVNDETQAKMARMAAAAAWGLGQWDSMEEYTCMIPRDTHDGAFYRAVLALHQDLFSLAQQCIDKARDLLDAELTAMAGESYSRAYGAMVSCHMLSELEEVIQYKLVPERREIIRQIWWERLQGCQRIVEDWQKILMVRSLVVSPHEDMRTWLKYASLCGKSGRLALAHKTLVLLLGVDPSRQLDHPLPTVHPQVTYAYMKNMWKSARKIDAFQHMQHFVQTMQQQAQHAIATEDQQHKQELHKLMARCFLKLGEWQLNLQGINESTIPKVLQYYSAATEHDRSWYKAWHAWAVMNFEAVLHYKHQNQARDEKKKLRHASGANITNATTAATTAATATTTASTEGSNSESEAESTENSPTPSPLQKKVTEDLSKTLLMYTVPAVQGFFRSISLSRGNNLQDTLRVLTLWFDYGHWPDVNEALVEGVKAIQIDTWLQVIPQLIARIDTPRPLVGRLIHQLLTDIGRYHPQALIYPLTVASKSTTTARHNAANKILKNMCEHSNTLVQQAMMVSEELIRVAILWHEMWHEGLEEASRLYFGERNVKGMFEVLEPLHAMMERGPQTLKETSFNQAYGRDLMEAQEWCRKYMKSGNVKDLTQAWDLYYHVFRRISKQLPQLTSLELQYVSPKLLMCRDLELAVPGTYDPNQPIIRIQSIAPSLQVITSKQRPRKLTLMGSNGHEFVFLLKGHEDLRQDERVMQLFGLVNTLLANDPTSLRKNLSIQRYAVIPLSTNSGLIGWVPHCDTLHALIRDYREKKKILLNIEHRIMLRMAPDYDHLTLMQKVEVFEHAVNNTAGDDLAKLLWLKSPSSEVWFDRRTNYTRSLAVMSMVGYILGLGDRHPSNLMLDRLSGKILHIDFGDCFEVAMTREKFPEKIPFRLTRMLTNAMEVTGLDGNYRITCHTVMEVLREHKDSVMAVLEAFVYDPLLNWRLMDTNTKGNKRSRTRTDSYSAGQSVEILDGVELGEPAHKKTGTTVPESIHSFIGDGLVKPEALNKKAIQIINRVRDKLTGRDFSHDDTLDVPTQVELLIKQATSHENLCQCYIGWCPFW

[4] = test system: human breast MDA-MB-361 tumor cell line; assay: In vitro cell culture growth assay (MTS), MDA-MB-361; format: cell-based; details: Homo sapiens, three days after drug treatment, read-out: IC50 MDA-MB-361
[5] = target: PI3K-γ (Homo sapiens, UniProt P48736); assay: PI3K-gamma fluorescence polarization assay; details: read-out: IC50 PI3Kγ
Chain of PI3K-γ (P48736 whole entry, species assumed): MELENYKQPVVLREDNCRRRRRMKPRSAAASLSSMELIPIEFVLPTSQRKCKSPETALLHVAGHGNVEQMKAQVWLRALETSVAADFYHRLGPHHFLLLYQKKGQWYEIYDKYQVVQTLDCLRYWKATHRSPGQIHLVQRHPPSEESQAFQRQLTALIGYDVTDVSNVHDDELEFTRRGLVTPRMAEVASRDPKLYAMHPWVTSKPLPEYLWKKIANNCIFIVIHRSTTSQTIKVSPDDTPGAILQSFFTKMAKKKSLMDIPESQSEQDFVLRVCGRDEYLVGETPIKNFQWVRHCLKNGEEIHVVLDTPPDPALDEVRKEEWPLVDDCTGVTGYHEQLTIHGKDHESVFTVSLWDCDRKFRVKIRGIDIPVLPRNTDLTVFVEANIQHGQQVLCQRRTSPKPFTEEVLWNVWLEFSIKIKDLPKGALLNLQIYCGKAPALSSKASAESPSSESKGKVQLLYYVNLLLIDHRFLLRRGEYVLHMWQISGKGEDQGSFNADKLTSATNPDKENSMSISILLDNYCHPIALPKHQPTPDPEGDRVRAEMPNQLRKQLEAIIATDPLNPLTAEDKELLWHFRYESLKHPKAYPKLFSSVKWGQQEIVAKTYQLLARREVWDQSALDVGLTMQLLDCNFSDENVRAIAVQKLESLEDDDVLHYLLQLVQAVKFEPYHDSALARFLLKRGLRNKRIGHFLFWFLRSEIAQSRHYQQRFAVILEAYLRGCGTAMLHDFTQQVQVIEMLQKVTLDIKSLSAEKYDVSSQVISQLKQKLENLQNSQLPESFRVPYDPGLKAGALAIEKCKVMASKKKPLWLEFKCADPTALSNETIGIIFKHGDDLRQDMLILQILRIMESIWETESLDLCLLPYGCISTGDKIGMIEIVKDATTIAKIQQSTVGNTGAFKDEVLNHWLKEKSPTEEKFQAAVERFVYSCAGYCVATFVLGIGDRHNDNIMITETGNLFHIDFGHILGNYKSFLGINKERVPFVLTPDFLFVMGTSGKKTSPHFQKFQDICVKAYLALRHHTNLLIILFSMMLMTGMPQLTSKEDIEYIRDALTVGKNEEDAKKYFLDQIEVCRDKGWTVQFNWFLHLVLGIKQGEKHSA

[6] = MTS cell growth assay, three days after drug treatment, PC3-mm2 cells, read-out: IC50 PC3-mm2
[7] = 72 h, MTS cell growth assay, MDA-MB-361 cells
[8] = MTS cell growth assay, three days after drug treatment, read-out: IC50 PC3-mm2
[9] = MDA-MB-361, 72 h, MTS cell growth assay

| SMILES | IC50 [1, 6] | IC50 [2] | IC50 ([3]; read-out: IC50 mTOR) | IC50 [4, 7] | IC50 [5] | IC50 [1, 8] | IC50 ([3]; IC50 mTOR) | IC50 [4, 9] | IC50 ([1]; read-out: IC50 PC3-mm2, MTS cell growth assay, three days after drug treatment) | IC50 ([1]; PC3-mm2 cells, MTS, three days after drug treatment, read-out: IC50 PC3-mm2) | IC50 ([4]; MDA-MB-361, 72 h, MDA-MB-361 cells, MTS) | IC50 ([5]; listed as 532) | IC50 ([4]; MDA-MB-361, 72 h, MTS cell growth assay, MDA-MB-361 cells) |
| --- | --- | --- | --- | --- | --- | --- | --- | --- | --- | --- | --- | --- | --- |
| CN(C)CCN(C)C(=O)c1ccc(NC(=O)Nc2ccc(-c3nc(N4CCOCC4)nc(N4CCOCC4)n3)cc2)cc1 [Example 71, N-(2-(dimethylamino)ethyl)-4-(3-(4-(4,6-dimorpholino-1,3,5-triazin-2-yl)phenyl)ureido)-N-methylbenzamide hydrochloride] |  | 0.4 nM |  |  | 8 nM | 18.3 nM | 0.67 nM | < 9.8 nM |  |  |  |  |  |
| CC(C)Oc1nc(-c2ccc(NC(=O)Nc3ccncc3)cc2)nc(N2CCOCC2)n1 [Example 94, 1-[4-(4-isopropoxy-6-morpholin-4-yl-1,3,5-triazin-2-yl)phenyl]-3-pyridin-4-ylurea] |  | 5 nM | 1 nM |  | 56 nM | 82 nM |  | 54 nM |  |  |  |  |  |
| Cc1ccc(NC(=O)Nc2ccc(-c3nc(NC4CNC4)nc(N4CCOCC4)n3)cc2)cc1 [Example 20, 1-{4-[4-(azetidin-3-ylamino)-6-morpholin-4-yl-1,3,5-triazin-2-yl]phenyl}-3-(4-methylphenyl)urea] |  | 41 nM | 30.5 nM |  | 258 nM | > 10000 nM |  | > 10000 nM |  |  |  |  |  |
| O=C(Nc1ccc(C(=O)NCCN2CCCC2)cc1)Nc1ccc(-c2nc(N3CCOCC3)nc(N3C4CCC3COC4)n2)cc1 [Example 758, 4-[({4-[4-morpholin-4-yl-6-(3-oxa-8-azabicyclo[3.2.1]oct-8-yl)-1,3,5-triazin-2-yl]phenyl}carbamoyl)amino]-N-(2-pyrrolidin-1-ylethyl)benzamide] | 14 nM | 2 nM | 0.17 nM | 3 nM | 16 nM |  |  |  |  |  |  |  |  |
| Cc1ccc(NC(=O)Nc2ccc(-c3nc(N4CCOCC4)nc(N4CC5CCC(C4)O5)n3)cc2)cc1 [Example 25, 1-(4-methylphenyl)-3-{4-[4-morpholin-4-yl-6-(8-oxa-3-azabicyclo[3.2.1]oct-3-yl)-1,3,5-triazin-2-yl]phenyl}urea] |  | 58 nM | 4.05 nM |  | 105 nM | 258 nM |  | 264 nM |  |  |  |  |  |
| O=C(Nc1ccc(C(=O)N2CCC(N3CCCCC3)CC2)cc1)Nc1ccc(-c2nc(N3CCOCC3)nc(N3CCOCC3)n2)cc1 [Example 75, 1-(4-(1,4′-bipiperidine-1′-carbonyl)phenyl)-3-(4-(4,6-dimorpholino-1,3,5-triazin-2-yl)phenyl)urea] |  | 0.6 nM | 0.75 nM |  | 10 nM |  |  | < 3 nM | 7 nM |  |  |  |  |
| O=C(Nc1ccc(C(=O)NCCN2CCCCC2)cc1)Nc1ccc(-c2nc(N3CCOCC3)nc(N3C4COCC3COC4)n2)cc1 [Example 775, 4-[({4-[4-(3,7-dioxa-9-azabicyclo[3.3.1]non-9-yl)-6-morpholin-4-yl-1,3,5-triazin-2-yl]phenyl}carbamoyl)amino]-N-(2-piperidin-1-ylethyl)benzamide] | 7 nM | 2.5 nM | 0.23 nM | 5 nM | 46.5 nM |  |  |  |  |  |  |  |  |
| CC(C)(C)OC(=O)N1CC(Nc2nc(-c3ccc(NC(=O)Nc4cccnc4)cc3)nc(N3CCOCC3)n2)C1 [Example 15, tert-butyl 3-[(4-morpholin-4-yl-6-{4-[(pyridine-3-ylcarbamoyl)amino]phenyl}-1,3,5-triazin-2-yl)amino]azetidine-1-carboxylate] |  | 23 nM | 2.5 nM |  | 177 nM | 328 nM |  | 255 nM |  |  |  |  |  |
| O=C(Nc1ccc(C(=O)NCCO)cc1)Nc1ccc(-c2nc(N3CCOCC3)nc(N3C4CCC3COC4)n2)cc1 [Example 699, N-(2-hydroxyethyl)-4-[({4-[4-morpholin-4-yl-6-(3-oxa-8-azabicyclo[3.2.1]oct-8-yl)-1,3,5-triazin-2-yl]phenyl}carbamoyl)amino]benzamide] | 40 nM | 5 nM | 0.3 nM | 36 nM | 62.5 nM |  |  |  |  |  |  |  |  |
| CNCCN(C)C(=O)c1ccc(NC(=O)Nc2ccc(-c3nc(N4CCOCC4)nc(N4C5CCC4COC5)n3)cc2)cc1 [Example 701, N-methyl-N-[2-(methylamino)ethyl]-4-[({4-[4-morpholin-4-yl-6-(3-oxa-8-azabicyclo[3.2.1]oct-8-yl)-1,3,5-triazin-2-yl]phenyl}carbamoyl)amino]benzamide] | < 30 nM | 2 nM | 0.36 nM | < 30 nM | 25 nM |  |  |  |  |  |  |  |  |
| Cc1cc(NC(=O)Nc2ccc(-c3nc(N4CCOCC4)nc(N4CCOCC4)n3)cc2)ccn1 [Example 49, 1-[4-(4,6-dimorpholin-4-yl-1,3,5-triazin-2-yl)phenyl]-3-(2-methylpyridin-4-yl)urea] |  | 3 nM | 10 nM and 8.9 nM |  | 21 nM | 79 nM |  | 84 nM |  |  |  |  |  |

Results, then the compound that gave them:

| IC50 [1, 6] | IC50 [2] | IC50 ([3]; read-out: IC50 mTOR) | IC50 [4, 7] | IC50 [5] | IC50 [1, 8] | IC50 ([3]; IC50 mTOR) | IC50 [4, 9] | IC50 ([1]; read-out: IC50 PC3-mm2, MTS cell growth assay, three days after drug treatment) | IC50 ([1]; PC3-mm2 cells, MTS, three days after drug treatment, read-out: IC50 PC3-mm2) | IC50 ([4]; MDA-MB-361, 72 h, MDA-MB-361 cells, MTS) | IC50 ([5]; listed as 532) | IC50 ([4]; MDA-MB-361, 72 h, MTS cell growth assay, MDA-MB-361 cells) | SMILES |
| --- | --- | --- | --- | --- | --- | --- | --- | --- | --- | --- | --- | --- | --- |
| 32 nM | 12.5 nM | 1 nM | 6 nM | 104 nM |  |  |  |  |  |  |  |  | C[C@@H]1COCCN1c1nc(-c2ccc(NC(=O)Nc3ccc(C(=O)N4CCN(C)CC4)cc3)cc2)nc(N2CCOC[C@@H]2C)n1 [Example 623, 1-(4-{4-[(3R)-3-methylmorpholin-4-yl]-6-[(3S)-3-methylmorpholin-4-yl]-1,3,5-triazin-2-yl}phenyl)-3-{4-[(4-methylpiperazin-1-yl)carbonyl]phenyl}urea] |
| 44 nM | 16 nM | 2 nM | 9 nM | 114 nM |  |  |  |  |  |  |  |  | CCCN1CCN(C(=O)c2ccc(NC(=O)Nc3ccc(-c4nc(N5CCOC[C@@H]5C)nc(N5CCOC[C@@H]5C)n4)cc3)cc2)CC1 [Example 638, 1-(4-{4,6-bis[(3S)-3-methylmorpholin-4-yl]-1,3,5-triazin-2-yl}phenyl)-3-{4-[(4-propylpiperazin-1-yl)carbonyl]phenyl}urea] |
|  | 3.2 nM | 1.5 nM |  | 33.5 nM |  |  |  |  | 19 nM | 2 nM |  |  | CC(C)N1CCN(C(=O)c2ccc(NC(=O)Nc3ccc(-c4nc(N5CCOCC5)nc(N5CC6CCC5CO6)n4)cc3)cc2)CC1 (stereo not drawn) [Example 811, 1-(4-{[4-(1-methylethyl)piperazin-1-yl]carbonyl}phenyl)-3-{4-[4-morpholin-4-yl-6-(2-oxa-5-azabicyclo[2.2.2]oct-5-yl)-1,3,5-triazin-2-yl]phenyl}urea] |
| 270 nM | 24 nM | 10 nM | 106 nM | 118 nM |  |  |  |  |  |  |  |  | COCCNC(=O)c1ccc(NC(=O)Nc2ccc(-c3nc(-c4ccccc4)nc(N4CCOCC4)n3)cc2)cc1 [Example 551, N-(2-methoxyethyl)-4-({[4-(4-morpholin-4-yl-6-phenyl-1,3,5-triazin-2-yl)phenyl]carbamoyl}amino)benzamide] |
| 266 nM | 3 nM | 22 nM and 19 nM |  | 77 nM | 266 nM |  | 122 nM |  |  |  | 76.5 nM |  | Cc1ccc(-c2nc(-c3ccc(NC(=O)Nc4ccc(C(=O)N(C)CCN(C)C)cc4)cc3)nc(N3CCOCC3)n2)cc1 [Example 338, N-[2-(dimethylamino)ethyl]-N-methyl-4-[({4-[4-(4-methylphenyl)-6-morpholin-4-yl-1,3,5-triazin-2-yl]phenyl}carbamoyl)amino]benzamide] |
| 62 nM | 21.5 nM | 4 nM |  | 190 nM |  |  |  |  |  |  |  | 26 nM | C[C@H]1COCCN1c1nc(-c2ccc(NC(=O)Nc3ccc(C(=O)N4CCCCC4)cc3)cc2)nc(N2CCOC[C@@H]2C)n1 [Example 637, 1-(4-{4,6-bis[(3S)-3-methylmorpholin-4-yl]-1,3,5-triazin-2-yl}phenyl)-3-[4-(piperidin-1-ylcarbonyl)phenyl]urea] |
| 15 nM | 2.7 nM | 1 nM | 4 nM | 32.5 nM |  |  |  |  |  |  |  |  | CC(C)N1CCN(C(=O)c2ccc(NC(=O)Nc3ccc(-c4nc(N5CCOC[C@@H]5C)nc(N5CCOC[C@@H]5C)n4)cc3)cc2)CC1 [Example 614, 1-(4-{4,6-bis[(3S)-3-methylmorpholin-4-yl]-1,3,5-triazin-2-yl}phenyl)-3-(4-{[4-(1-methylethyl)piperazin-1-yl]carbonyl}phenyl)urea] |
| 92 nM | 2.2 nM | 3 nM | 7 nM | 46 nM |  |  |  |  |  |  |  |  | CN(C)CCN(C)C(=O)c1ccc(NC(=O)Nc2ccc(-c3nc(N4CCCCC4)nc(N4CCOCC4)n3)cc2)cc1 [Example 605, N-[2-(dimethylamino)ethyl]-N-methyl-4-({[4-(4-morpholin-4-yl-6-piperidin-1-yl-1,3,5-triazin-2-yl)phenyl]carbamoyl}amino)benzamide] |
| 27 nM | 14.5 nM | 1 nM | 16 nM | 123 nM |  |  |  |  |  |  |  |  | COCCNC(=O)c1ccc(NC(=O)Nc2ccc(-c3nc(N4CCOC[C@@H]4C)nc(N4CCOC[C@@H]4C)n3)cc2)cc1 [Example 639, 4-{[(4-{4,6-bis[(3S)-3-methylmorpholin-4-yl]-1,3,5-triazin-2-yl}phenyl)carbamoyl]amino}-N-(2-methoxyethyl)benzamide] |
